Source: publication PMC6286348, “Inhibitor binding mode and allosteric regulation of Na^+-glucose symporters” (Nature Communications, 2018)

Legend:
[1] = biological target: T1, hSGLT1 wild-type (Homo sapiens, UniProt P13866); assay: SGLT current measurement (two electrode voltage clamp) in oocytes, hSGLT1 wild-type; type: cell-based; details: apparent affinity from αMDG current vs external Na^+, 10 mM αMDG, 22 °C
T1 construct: expressed in transfected cells; host or cells: Xenopus laevis oocytes injected with cRNA
T1 sequence (P13866 1-664): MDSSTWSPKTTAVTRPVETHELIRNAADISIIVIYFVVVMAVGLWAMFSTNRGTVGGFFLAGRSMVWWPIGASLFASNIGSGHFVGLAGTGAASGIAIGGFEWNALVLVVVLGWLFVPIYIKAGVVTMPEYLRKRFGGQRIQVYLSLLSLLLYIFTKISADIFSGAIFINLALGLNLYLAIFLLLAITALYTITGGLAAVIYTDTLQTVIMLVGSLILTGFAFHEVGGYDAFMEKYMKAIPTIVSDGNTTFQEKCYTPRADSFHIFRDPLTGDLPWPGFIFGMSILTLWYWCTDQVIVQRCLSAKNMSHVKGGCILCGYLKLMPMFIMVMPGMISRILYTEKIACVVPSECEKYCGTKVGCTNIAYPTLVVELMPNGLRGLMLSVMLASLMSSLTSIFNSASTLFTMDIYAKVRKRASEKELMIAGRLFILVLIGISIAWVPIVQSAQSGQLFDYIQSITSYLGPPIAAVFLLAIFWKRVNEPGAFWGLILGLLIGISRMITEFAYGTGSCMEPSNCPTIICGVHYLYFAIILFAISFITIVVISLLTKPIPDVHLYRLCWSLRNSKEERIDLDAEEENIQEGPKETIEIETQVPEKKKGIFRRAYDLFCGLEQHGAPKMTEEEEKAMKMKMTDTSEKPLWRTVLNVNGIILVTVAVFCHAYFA
Method: (§1) Xenopus laevis (Nasco) oocytes (V–VI) were prepared as previously described[20] and injected with 50 nl of cRNA (1 μg/μl). […] Briefly, oocytes were incubated for 30 min in the presence of 50 μM αMDG (5 μM [^14C]αMDG) in a buffer containing (in mM) 100 NaCl, 2 KCl, 1 MgCl2, 1 CaCl2, and 10 N-(2-hydroxyethyl)piperazine-N′-(2-ethanesulfonic acid) (HEPES)/Tris (pH 7.5). After incubation, oocytes were rinsed thoroughly with ice-cold buffer containing (mM) 100 choline Cl^–, 2 KCl, 1 MgCl2, 1 CaCl2, and 10 HEPES/Tris (pH 7.5), individually lysed with 5% sodium dodecyl sulfate, and assayed for radioactivity.
Injected oocytes were incubated at 18 °C, and after 3–4 days, two electrode voltage clamp experiments were performed as previously described. Briefly, SGLT inward glucose currents were measured as a function of the external Na^+ (0–100 mM NaCl), sugar (0–100 mM αMDG), and inhibitors (0.001–100 μM). Steady-state and hSGLT1 capacitive currents were recorded using voltage steps from a holding voltage, Vh of −60 mV, to voltages in the range of −180 to +50 mV in 20 mV increments. The apparent affinity of αMDG, K0.5, was estimated from plots of the inward current as a function of the external αMDG concentration. […] The Na^+-to-αMDG stoichiometry was determined from the reversal potential measurements using the Gibbs free energy as previously described. […]

[2] = tested on: hSGLT1 Y290C; design: method as in PMID 22159082; details: oocytes, 22 °C; cited from earlier work
[3] = tested on: hSGLT1 S392A/C; design: method as in PMID 22159082; details: oocytes, 22 °C; cited from earlier work
[4] = tested on: hSGLT1 F453C; design: method as in PMID 22159082; details: oocytes, 22 °C; cited from earlier work
[5] = biological target: T2, hSGLT2 wild-type (Homo sapiens, UniProt P31639); assay: SGLT current measurement in oocytes, hSGLT2 wild-type (MAP17 co-injected); type: cell-based; design: expressed in transfected cells; host or cells: Xenopus laevis oocytes injected with hSGLT2 cRNA and MAP17 cRNA; details: 22 °C
T2 sequence (P31639 1-672): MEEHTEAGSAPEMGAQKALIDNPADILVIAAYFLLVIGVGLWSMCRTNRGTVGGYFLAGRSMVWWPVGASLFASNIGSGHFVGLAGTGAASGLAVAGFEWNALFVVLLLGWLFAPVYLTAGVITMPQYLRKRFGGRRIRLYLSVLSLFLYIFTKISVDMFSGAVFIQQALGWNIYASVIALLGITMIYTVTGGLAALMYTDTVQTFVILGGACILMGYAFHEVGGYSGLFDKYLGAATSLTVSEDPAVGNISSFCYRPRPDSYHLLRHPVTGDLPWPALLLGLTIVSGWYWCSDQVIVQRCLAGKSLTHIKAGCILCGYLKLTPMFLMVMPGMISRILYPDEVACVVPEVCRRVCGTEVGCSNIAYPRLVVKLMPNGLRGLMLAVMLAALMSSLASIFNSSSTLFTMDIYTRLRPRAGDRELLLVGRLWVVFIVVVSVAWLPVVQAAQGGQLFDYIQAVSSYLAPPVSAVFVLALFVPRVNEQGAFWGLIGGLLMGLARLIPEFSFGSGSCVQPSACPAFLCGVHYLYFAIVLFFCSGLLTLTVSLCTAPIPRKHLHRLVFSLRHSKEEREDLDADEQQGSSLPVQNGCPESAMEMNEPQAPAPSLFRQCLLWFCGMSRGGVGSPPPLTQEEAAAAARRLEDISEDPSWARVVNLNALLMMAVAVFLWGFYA
T2 sequence (Q13113 1-114 partner): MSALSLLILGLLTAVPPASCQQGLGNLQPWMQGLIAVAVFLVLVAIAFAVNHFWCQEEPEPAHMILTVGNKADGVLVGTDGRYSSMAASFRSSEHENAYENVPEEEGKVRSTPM
Method: as §1
Injected oocytes were incubated at 18 °C, and after 3–4 days, two electrode voltage clamp experiments were performed as previously described. Briefly, SGLT inward glucose currents were measured as a function of the external Na^+ (0–100 mM NaCl), sugar (0–100 mM αMDG), and inhibitors (0.001–100 μM). Steady-state and hSGLT1 capacitive currents were recorded using voltage steps from a holding voltage, Vh of −60 mV, to voltages in the range of −180 to +50 mV in 20 mV increments. The apparent affinity of αMDG, K0.5, was estimated from plots of the inward current as a function of the external αMDG concentration. Under our experimental conditions, K0.5 is a close approximation of the αMDG binding constant to the Na^+-bound outward conformation of SGLT. The apparent affinity for Na^+, K0.5, was estimated from plots of the αMDG inward current as a function of external Na^+ concentration. For hSGLT1 the interpretation of K0.5 is more complex owing to the presence of two Na^+ binding sites. In this case, the K0.5 is a lumped coefficient for Na^+ binding to the two sites in the outward-facing hSGLT1 conformation. […] The Na^+-to-αMDG stoichiometry was determined from the reversal potential measurements using the Gibbs free energy as previously described. The stoichiometry determinations were reinforced by estimates of αMDG and Na^+ Hill coefficients, and in some cases, by measurement of ^22Na and [^14C]αMDG uptakes under voltage clamp, [21].

[Na+] [Na^+]
K0.5 Na^+ [1]: 36 ± 1 mM | K0.5 Na^+ [2]: 46 ± 5[20] mM | K0.5 Na^+ [3]: 122 ± 12[20] mM | K0.5 Na^+ [4]: 21 ± 1[20] mM | K0.5 Na^+ [5]: 22 ± 1 mM
